Measurements published in article PMC5372168, “Serine protease SP105 activates prophenoloxidase in Asian corn borer melanization, and is regulated by serpin-3” (Scientific Reports, 2017).

Biological target: T1, Asian corn borer prophenoloxidase-2 (OfPPO2; PO2) (Ostrinia furnacalis, UniProt Q2I355)
T1 construct: coding region of mature PPO2 in pET28a, E. coli BL21(DE3), purified
T1 sequence (Q2I355 1-692): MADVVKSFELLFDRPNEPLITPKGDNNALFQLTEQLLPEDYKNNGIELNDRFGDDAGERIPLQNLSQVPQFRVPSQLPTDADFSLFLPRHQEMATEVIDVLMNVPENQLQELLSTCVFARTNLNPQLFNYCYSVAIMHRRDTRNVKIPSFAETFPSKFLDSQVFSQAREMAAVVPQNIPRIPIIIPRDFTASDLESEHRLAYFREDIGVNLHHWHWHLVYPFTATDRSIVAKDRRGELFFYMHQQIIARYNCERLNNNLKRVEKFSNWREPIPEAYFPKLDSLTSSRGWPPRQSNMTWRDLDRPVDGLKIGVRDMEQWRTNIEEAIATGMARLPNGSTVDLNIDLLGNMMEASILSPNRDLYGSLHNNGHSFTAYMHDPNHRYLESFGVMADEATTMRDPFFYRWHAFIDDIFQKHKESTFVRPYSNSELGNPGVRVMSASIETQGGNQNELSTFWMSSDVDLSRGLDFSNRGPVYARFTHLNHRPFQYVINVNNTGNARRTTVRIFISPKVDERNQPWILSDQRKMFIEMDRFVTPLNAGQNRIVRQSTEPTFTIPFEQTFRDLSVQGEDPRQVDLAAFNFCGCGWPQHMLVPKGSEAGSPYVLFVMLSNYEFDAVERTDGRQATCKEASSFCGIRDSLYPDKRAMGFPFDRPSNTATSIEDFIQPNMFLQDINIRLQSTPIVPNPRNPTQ
Assay: phenoloxidase assay, A490
Format: biochemical
Conditions: PPO2 activated by Factor Xa-activated SP105Xa, 37 °C 30 min

NCCc1ccc(O)c(O)c1 [dopamine]
phenoloxidase assay, A490: PO activity in the reaction mixtures was measured using dopamine as substrate
